Results on one compound are retold here after patent publication US5439933A (priority 1993, dated 1995).

Holding throughout (format): cell-based
Test [1] deals with HBL-100 human breast cells. As to the kind of experiment: Cell proliferation assay (cell counts), HBL-100. As to conditions: Table 5, 72 hours. On the procedure:
(§1) Tolytoxin and the other new scytophycin compounds are potent anticancer and antifungal agents. The cytotoxicity of tolytoxin and other new scytophycin compounds was determined using a cell proliferation assay, which tested the effect of the compounds on increases in cell numbers.
(§2) Cell lines were grown in plastic dishes (Falcon) in Eagle's basal medium supplemented with 5% newborn calf serum (KB), Fisher's medium supplemented with 10% horse serum (L1210), Dulbecco's modified Eagle's medium supplemented with 5% heat-inactivated fetal calf serum (LoVo), minimal essential medium supplemented with 2% heat-inactivated chicken serum (HEp-2), RPMI-1640 supplemented with 10% heat-inactivated fetal calf serum (T-47D, COLO-201) or 20% heat-inactivated fetal calf serum (HL-60, KATO-III), or McCoy's 5A supplemented with 10% heat-inactivated fetal calf serum (HBL-100). All cell culture media were supplemented with 50 μg/ml gentamycin sulfate. The cultures were incubated at 37° C. in a humidified atmosphere containing 5% carbon dioxide.
(§3) Cultures were exposed to graded concentrations of tolytoxin and reincubated for 72 hours in the presence of tolytoxin. […] Cell numbers were determined by hemacytometer counts. The IC50 for each cell line was determined by plotting the logarithm of the tolytoxin concentration versus growth (cell number as a percentage of the control) of the treated cells.

The test system of test [2] is T47-D human ductal carcinoma cells. As to the kind of experiment: Cell proliferation assay (cell counts), T47-D. As to conditions: T47D, Table 5, 72 hours. On the procedure:
as §1, §2, §3

Test [3] has as its system Trichophyton mentagrophytes A23. The test is described as follows: Antifungal agar dilution. Conditions: Trichophyton mentagrophytes, A23, 48 h. On the procedure: (§4) The new scytophycins are also useful as antifungal agents. Antimicrobial activity was determined by the agar dilution method. Tolytoxin was dissolved in 95% ethanol for addition to cooled, molten agar. Nystatin was solubilized in DMSO and diluted in distilled water. Appropriate solvent controls were also prepared. Fungal cultures were grown on Saboraud dextrose agar. Assay plates were incubated for 48 hours post-inoculation. Yeasts and filamentous fungi were incubated at 25° C.
For orientation: In agar dilution the substance is mixed into plates at graded concentrations.

In a further test the test system is Penicillium notatum. As to the kind of experiment: Antifungal agar dilution. Conditions: Penicillium chrysogenum, 48 h. On the procedure: as §4
In a further test the test system is Rhizoctonia solani 1165. As to the kind of experiment: Antifungal agar dilution. Conditions: Rhizoctonia solani, 1165, 48 h. On the procedure:
as §4

The next test deals with Aspergillus oryzae. As to the kind of experiment: Antifungal agar dilution. As to conditions: 48 h. On the procedure:
as §4

The subject of test [4] is Phyllosticta capitalensis 689-5. The test is described as follows: Antifungal agar dilution. As to conditions: Phyllosticta capitalensis, 6895, 48 h. On the procedure:
as §4

Test [5] has as its system Calonectria critalarae 1809. As to the kind of experiment: Antifungal agar dilution. Conditions: 48 h. On the procedure:
as §4

For test [6], the system named is Alternaria alternata 1715. As to the kind of experiment: Antifungal agar dilution. Conditions: Alternaria alternata, 1715, 48 h. On the procedure: as §4
For a further test, the system named is Bipolaris incurvata 2118. The test is described as follows: Antifungal agar dilution. As to conditions: Bipolaris incurvata, 2118, 48 h. On the procedure:
as §4

Test [7] deals with Colletotrichum coccodes 1809. The test is described as follows: Antifungal agar dilution. Conditions: Colletotrichum coccodes, 1809, 48 h. On the procedure: as §4
The subject of test [8] is HEp-2 human epidermoid carcinoma cells. The test is described as follows: Cell proliferation assay (cell counts), HEp-2. As to conditions: Table 5, 72 hours. On the procedure:
as §1, §2, §3

For the next test, the system named is Candida albicans A26. As to the kind of experiment: Antifungal agar dilution. Conditions: Candida albicans, A26, 48 h. On the procedure: as §4
(§5) Activity was determined using the method described above for tolytoxin.

Another test concerns Saccharomyces cerevisae. As to the kind of experiment: Antifungal agar dilution. Conditions: Saccharomyces, 48 h. On the procedure:
as §4, §5

Test [9] deals with Phytophthora nicotianae H729. The test is described as follows: Antifungal agar dilution. Conditions: Phytophthora nicotianae, 48 h. On the procedure:
as §4, §5

The test system of a further test is Sclerotium rofsii 2133. As to the kind of experiment: Antifungal agar dilution. As to conditions: 48 h. On the procedure: as §4, §5
Test [10] concerns Thielaviopsis paradoxa 1215. As to the kind of experiment: Antifungal agar dilution. Conditions: Thielaviopsis paradoxa, 1215, 48 h. On the procedure: as §4, §5
The test system of test [11] is Human ovarian carcinoma cells (SKOV3). The test is described as follows: cells. As to conditions: SK-OV-3, 48 h, read-out: IC50 SKOV3. On the procedure: Human ovarian carcinoma cells (SKOV3) and a subline made multi-drug resistant by slowly increasing vinblastine in the culture medium over the course of many passages (SKVLB) were grown in Earle's basal medium (BME) containing 10% fetal calf serum. The SKVLB cells were maintained in the presence of 1 µg/mL vinblastine. The multi-drug resistant cell line is resistant to adriamycin, vinblastine, actinomycin D, and colchicine.
Cell proliferation was estimated by measurement of protein content of the cultured cells, as described by Skehan et al. (1990). Cells were plated into 24-well plates at approximately 10% confluency in BME and were allowed to attach and recover for at least 24 hours. The cells were then treated with the scytophycins or appropriate control for 48 hours. After the incubation, the medium was removed from each well and cells fixed by addition of 10% (w/v) trichloroacetic acid (TCA) (4° C.). The cells were incubated at 4° C. for one hour and then washed five times with water to remove TCA. The TCA-fixed cells were then stained for 30 minutes with 0.4% (w/v) sulforhodamine B prepared in 1% acetic acid. Following the staining, the cell layers were washed four times with 1% acetic acid. The cell layer was dissolved in 10 mM unbuffered tris-hydroxymethylaminomethane base. Absorbance of the solution was determined at 564 nm. Antiproliferative activity is manifested as decreased production of cellular protein.

Test [12] concerns HL-60 human promyelocytic leukemia cells. The test is described as follows: Cell proliferation assay (cell counts), HL-60. Conditions: Table 5, 72 hours. On the procedure: as §1, §2, §3
The test system of test [13] is KATO-III human gastric carcinoma cells. The test is described as follows: Cell proliferation assay (cell counts), KATO-III. As to conditions: Table 5, 72 hours. On the procedure: as §1, §2, §3
For test [14], the system named is Human epidermoid carcinoma (KB) cells. As to the kind of experiment: Cell shape and nuclear protrusion by microscopy. On the procedure:
In the following procedure new scytophycins were employed to cause nuclear protrusion in mammalian cells. Human epidermoid carcinoma (KB) cells were plated on plastic tissue-culture dishes in Dulbecco's modified Eagle's medium at 1×10^5 cells per 60 mm dish. The cell cultures were incubated overnight at 37° C. in a humidified atmosphere of 95% air and 5% carbon dioxide to allow the cells to settle and become attached. Following the incubation, tolytoxin or the appropriate vehicle control was added in a volume of not more than 35 μL per 5 mL of culture medium. After an additional incubation period ranging from 1 to 4 hours, the culture medium was removed and the cell layer washed twice with phosphate-buffered saline (PBS), pH 7.2. The washed cell layer was stained for 15 minutes with 0.01% acridine orange in PBS. Following staining, the cell suspension was washed for 15 minutes with two changes of PBS to remove unbound stain and photographed on a Zeiss IM-35 photomicroscope equipped with brightfield and epifluorescence optics.

Molecules are shown by their SMILES. Values after ≈ are worked out from the molar mass of the structure shown. “Also recorded” adds a separate entry of the source.

Consider `COC1CC2C=CCC(CC(OC)C3(CO3)C(OC)CC(OC)C(C)C(C(C)C(O)C(C)CCC(=O)C(C)C(OC)C(C)/C=C/N(C)C=O)OC(=O)/C=C/C(C)=C/C1O)O2` (stereo not shown) [Tolytoxin, 6-hydroxy-7-O-methylscytophycin B], for which the IC50 (in general, the midpoint of a concentration-inhibition curve) is 2.4 nM in test [1]; 4.9 nM in [2]; 2.3 nM in test [8]; 25 nM in test [11]; 4.8 nM in [12]; 0.78 nM in [13]. The MIC (as a rule, the lowest concentration found to suppress growth) in test [3] worked out at 8 nM (≈ 6.8 ng/mL); with Penicillium notatum it was 0.25 nM (≈ 0.213 ng/mL); in the test on Rhizoctonia solani 1165 it was 0.25 nM (≈ 0.213 ng/mL); against Aspergillus oryzae, 0.5 nM (≈ 0.425 ng/mL); in test [4] it was 0.5 nM (≈ 0.425 ng/mL); in test [5], 2 nM (≈ 1.7 ng/mL). Moreover, the MIC was found to be 4 nM (≈ 3.4 ng/mL) in test [6]; 2 nM (≈ 1.7 ng/mL) in the test with Bipolaris incurvata 2118; 4 nM (≈ 3.4 ng/mL) in [7]; 8 nM (≈ 6.8 ng/mL) in the test on Candida albicans A26; 4 nM (≈ 3.4 ng/mL) with Saccharomyces cerevisae; 4 nM (≈ 3.4 ng/mL) in test [9]. Moreover, the MIC (in the test on Sclerotium rofsii 2133; in [10]) was 1 nM (≈ 0.85 ng/mL) each time. The “cell shape and surface appearance” value in test [14] (4 nM, 1 hour) was “fibroblastoid cellular shape and the appearance of blebs or zeioses on the cell surfaces; also recorded: the cells have lost their normal extended fibroblastoid shape, and the appearance of blebs or zeioses on the cell surface is apparent”. The “migration of cell nucleus” value in test [14] (8nM, 4 hours) is “the cell nuclei have migrated out of their respective cell bodies; also recorded: The cell nucleus has migrated outside the body of the cell and now occupies one of the zeiotic processes”.
